The NIST ThermoML archive (doi:10.1021/je3009304)

Conditions: Liquid

FC(F)=C(F)C(F)(F)F [hexafluoropropene]
Conditions | mass density [kg/m3]
208.66 K, 4440.7 kPa, isochoric method | 1666.3
212.77 K, 9785.5 kPa, isochoric method | 1665.7
217.15 K, 15655 kPa, isochoric method | 1665.1
220.5 K, 19878 kPa, isochoric method | 1664.7
220.7 K, 1017.1 kPa, isochoric method | 1618
221.58 K, 1995.2 kPa, isochoric method | 1617.9
222.5 K, 3032.3 kPa, isochoric method | 1617.8
223.26 K, 3878.8 kPa, isochoric method | 1617.7
224.31 K, 5176.5 kPa, isochoric method | 1617.5
224.32 K, 25024 kPa, isochoric method | 1664.2
228.25 K, 29978 kPa, isochoric method | 1663.7
228.76 K, 10104 kPa, isochoric method | 1616.9
232.02 K, 34664 kPa, isochoric method | 1663.2
233.17 K, 15012 kPa, isochoric method | 1616.4
236.26 K, 39771 kPa, isochoric method | 1662.7
237.66 K, 1075 kPa, isochoric method | 1560.8
237.67 K, 20020 kPa, isochoric method | 1615.8
238.62 K, 2000 kPa, isochoric method | 1560.7
239.74 K, 3075.4 kPa, isochoric method | 1560.5
240.8 K, 4091.1 kPa, isochoric method | 1560.4
241.91 K, 5150.8 kPa, isochoric method | 1560.2
241.95 K, 25034 kPa, isochoric method | 1615.3
247.02 K, 10041 kPa, isochoric method | 1559.6
247.52 K, 30945 kPa, isochoric method | 1614.6
251.36 K, 35209 kPa, isochoric method | 1614.2
252.41 K, 1004.8 kPa, isochoric method | 1507.5
252.51 K, 15276 kPa, isochoric method | 1559
253.78 K, 2142.1 kPa, isochoric method | 1507.3
254.97 K, 3117.5 kPa, isochoric method | 1507.2
255.93 K, 40226 kPa, isochoric method | 1613.6
256.1 K, 4061.6 kPa, isochoric method | 1507
257.5 K, 5226.1 kPa, isochoric method | 1506.9
257.54 K, 20028 kPa, isochoric method | 1558.4
262.84 K, 25067 kPa, isochoric method | 1557.8
268.15 K, 30042 kPa, isochoric method | 1557.2
269.46 K, 1140.2 kPa, isochoric method | 1444.5
269.51 K, 15216 kPa, isochoric method | 1506
270.71 K, 2007.3 kPa, isochoric method | 1444.3
272.14 K, 2994.8 kPa, isochoric method | 1444.2
273.5 K, 34978 kPa, isochoric method | 1556.7
273.87 K, 4188.8 kPa, isochoric method | 1444
275.36 K, 5220.9 kPa, isochoric method | 1443.8
275.38 K, 20012 kPa, isochoric method | 1505.4
278.75 K, 39847 kPa, isochoric method | 1556.1
281.62 K, 25020 kPa, isochoric method | 1504.3
282.66 K, 10250 kPa, isochoric method | 1443.1
282.84 K, 1039.3 kPa, isochoric method | 1388.2
284.56 K, 2050.1 kPa, isochoric method | 1388.1
286.25 K, 2995.1 kPa, isochoric method | 1387.9
287.65 K, 30072 kPa, isochoric method | 1504.2
287.98 K, 4010.4 kPa, isochoric method | 1387.7
289.44 K, 14959 kPa, isochoric method | 1442.4
289.66 K, 4997.4 kPa, isochoric method | 1387.6
294.12 K, 35270 kPa, isochoric method | 1503.5
296.97 K, 20036 kPa, isochoric method | 1441.7
297.23 K, 942.2 kPa, isochoric method | 1322
298.15 K, 2000 kPa, Pycnometric method | 1326.6
298.15 K, 10003 kPa, isochoric method | 1386.8
299.3 K, 1958.7 kPa, isochoric method | 1321.8
300.38 K, 40273 kPa, isochoric method | 1502.9
301.47 K, 3021.5 kPa, isochoric method | 1321.6
303.44 K, 3963.5 kPa, isochoric method | 1321.4
304.43 K, 25120 kPa, isochoric method | 1441
305.51 K, 4983.5 kPa, isochoric method | 1321.2
307 K, 15256 kPa, isochoric method | 1385.9
311.59 K, 29972 kPa, isochoric method | 1440.3
315.78 K, 2033.9 kPa, isochoric method | 1237.1
315.78 K, 9999.6 kPa, isochoric method | 1320.4
315.78 K, 20405 kPa, isochoric method | 1385.1
317.54 K, 2708.8 kPa, isochoric method | 1237
319.05 K, 35044 kPa, isochoric method | 1439.6
320.92 K, 3993.8 kPa, isochoric method | 1236.7
323.55 K, 4999.4 kPa, isochoric method | 1236.5
324.09 K, 25251 kPa, isochoric method | 1384.4
326.52 K, 40028 kPa, isochoric method | 1438.9
326.95 K, 15464 kPa, isochoric method | 1319.4
332.97 K, 30410 kPa, isochoric method | 1383.6
335.66 K, 19726 kPa, isochoric method | 1318.7
336.51 K, 9979.8 kPa, isochoric method | 1235.5
340.74 K, 34883 kPa, isochoric method | 1382.9
345.95 K, 24723 kPa, isochoric method | 1317.8
352.67 K, 41719 kPa, isochoric method | 1381.9
353.15 K, 16419 kPa, isochoric method | 1234.2
353.15 K, 28219 kPa, isochoric method | 1317.2
